# Biological target: T1, glucocorticoid receptor (GR) (Homo sapiens, UniProt P04150)
# T1 construct: gene NR3C1; full-length GR
# T1 sequence (P04150 1-777): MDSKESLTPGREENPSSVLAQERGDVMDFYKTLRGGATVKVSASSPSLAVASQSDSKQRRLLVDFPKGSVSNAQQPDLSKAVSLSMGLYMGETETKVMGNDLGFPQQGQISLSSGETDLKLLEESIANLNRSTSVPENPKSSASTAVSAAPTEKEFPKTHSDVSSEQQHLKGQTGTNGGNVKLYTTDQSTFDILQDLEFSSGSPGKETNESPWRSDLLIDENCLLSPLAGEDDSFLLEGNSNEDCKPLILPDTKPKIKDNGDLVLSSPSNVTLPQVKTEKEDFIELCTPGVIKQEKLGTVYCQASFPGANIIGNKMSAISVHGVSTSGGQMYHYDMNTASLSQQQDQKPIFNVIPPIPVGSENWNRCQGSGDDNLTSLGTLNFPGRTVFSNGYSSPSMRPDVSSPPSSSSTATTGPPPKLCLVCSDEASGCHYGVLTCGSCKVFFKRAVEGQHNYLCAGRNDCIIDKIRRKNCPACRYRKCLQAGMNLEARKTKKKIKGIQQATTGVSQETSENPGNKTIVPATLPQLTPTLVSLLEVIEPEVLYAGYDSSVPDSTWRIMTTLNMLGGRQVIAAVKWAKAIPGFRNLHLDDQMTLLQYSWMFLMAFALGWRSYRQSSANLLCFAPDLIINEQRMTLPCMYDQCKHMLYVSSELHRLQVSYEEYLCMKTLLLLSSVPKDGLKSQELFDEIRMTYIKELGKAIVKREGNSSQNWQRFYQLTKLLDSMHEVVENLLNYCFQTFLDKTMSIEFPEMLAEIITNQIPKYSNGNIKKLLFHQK
# Experiment: fluorescence polarization competition with fluorescent glucocorticoid ligand (PolarScreen GR Competitor Assay), purified GR
# Assay type: binding
structure (smiles),measurement,value
CC(=O)/C=C/C1=C(C)CCCC1(C)C [β-ionone],IC50,66.1 µM
